US20080226750A1, “Methods, Compositions and Articles of Manufacture for Treating Shock and Other Adverse Conditions” (priority 2006, published 2008)
Like-named read-outs stand apart in the source and are kept apart here.

Legend:
Drosophila melanogaster [1] = assay: Anoxia tolerance of adult flies after CO2 and/or H2S pretreatment; type: in vivo
Method: Basic experimental setup. Adult flies were introduced into 35 mL tubes made of glass with a gas-tight rubber stopper (Balsh tubes). This was usually accomplished by anesthetizing flies with CO2, moving groups of flies to vials with food to recover for at least 2 hours, and then transferring them into the Balsh tube. To exchange the gaseous environment in the Balsh tube, two 18 gauge needles were inserted into the rubber stopper, and gas is blown into one of the needles at 100 mL/min. To prevent dessication, gasses were humidified by bubbling through 10 mL of water before passing it through the Balsch tube. The water in the bubbler is equilibrated with the gas for at least 20 minutes before starting the experiment.
For “stopped-flow” experiments, gas exchange proceeded for 60 minutes before sealing the tube. For “low-flow” experiments, gas flow continued throughout the experiment. CO2 was from the house source (100%), and anoxic environments were established by flushing out room air with 100% nitrogen (N2). Care was taken to prevent introduction of room air into the system while switching the atmosphere from CO2 to N2.
After anoxic treatment, oxygen was reintroduced into the Balsh tube by flushing with house air for 20 minutes. The rubber stopper was then removed and a food vial is inverted over the top of the Balsh tubes with Parafilm. […] Viability was scored at least 18 hours after the end of anoxic treatment. After two weeks, if the food vials contained larvae and/or pupae the flies were considered to be fertile.

[2] = tested on: Drosophila melanogaster embryos and larvae; assay: Anoxia survival of fly embryos and larvae; type: in vivo
Method: Preliminary experiments with larvae and embryos. […] After exposure to anoxia for 24 h, 7 pupae were formed from a pool of 0-19 h old embryos. However, 20 pupae were observed from a matched pool that was pretreated with CO2 for 10 min.

Drosophila melanogaster [3] = assay: Anoxia tolerance of adult flies after CO2 and/or H2S pretreatment; type: in vivo; details: bubbler water not equilibrated with N2, 13 h anoxic exposure
rat hemorrhage model = assay: Controlled lethal hemorrhage (60% blood loss) in rats treated with H2S; type: in vivo
Method: After surgical implantation of catheters and recovery, blood was removed from conscious animals in 40 minutes. […] Three hours after the end of the bleed, surviving animals were given one shed-blood volume of lactated ringers solution intravenously.

mice in lethal hypoxia = assay: Survival of H2S pre-treated mice in lethal hypoxia; type: in vivo, mouse; details: graded reduction of oxygen tension following H2S pre-treatment
Method: FIG. 11 Survival of Mice in 5% Oxygen.
Experiments were stopped at 60 minutes and if the animals still alive were returned to their cage.

mice = assay: Metabolic rate (CO2 production, O2 consumption) of mice with H2S and hypoxia; type: in vivo, mouse; details: Ta=13° C.
Method: FIG. 14 Metabolic Rate of a Mouse in 5% Oxygen. […] Metabolic rate measured by CO2 output. […] At hour 6 the mouse was returned to room air and allowed to recover.
FIG. 15 CO2 Production During Transition to Lethal Hypoxia. […] In addition, the change in CO2 production upon step-wise transition to 5% O2 for 1 hr followed by 4% O2 was measured. The percent change in CO2 production is plotted with standard error indicated.
Relative carbon dioxide production and oxygen consumption of a mouse when pretreated and exposed to 5% O2. […] These experiments were done at Ta=13° C. so they could be compared to our previous studies. Values are the means from three animals and the error bars represent one standard deviation. p-values indicate the significance between the bars with the same symbols.
To determine the rate of consumption of oxygen or the rate of production of carbon dioxide the biological matter is placed into a chamber that is sealed with two openings; for gas import and export. Gas (room air or other gases) is passed into the chamber at a given flow rate and out of the exit port to maintain approximately 1 atmosphere of pressure in the chamber. […]
In addition, the change in CO2 production upon step-wise transition to 5% O2 for 1 hr followed by 4% O2 was measured.

C. elegans [4] = assay: Thermotolerance of C. elegans adapted to H2S; type: in vivo
Source text: A: Adapted animals survive at high temperature longer than unadapted controls. Adapted animals were exposed to high temperature in H2S as young adults.

C. elegans [5] = assay: Lifespan of C. elegans adapted to H2S; type: in vivo
Source text: Animals raised in house air were moved to H2S-containing environments at the beginning of the lifespan experiment. The lifespan of these animals is 14.8±0.3 days, which is shorter than controls that remained in house air (mean lifespan 18.2±0.4 days).

C. elegans [6] = assay: Developmental rates, progeny and rate of egg-laying of C. elegans in H2S; type: in vivo
Source text: The rate of egg-laying is tightly correlated with oocyte production, an energetically expensive activity that is a sensitive readout of metabolic capacity.

rodents and humans = details: 500 ppm; followed by recovery; cited from earlier work
rats = details: cited from earlier work
humans = details: cited from earlier work

O=C=O [CO2, carbon dioxide]
Survival of adult flies (Drosophila melanogaster [1]; 10 min CO2 pretreatment, 17, 22, and 24 h anoxia, low-flow, one experiment): no survival
Survival of adult flies (Drosophila melanogaster [1]; CO2 10 minutes pretreatment (no H2S), 20 h anoxic exposure, low-flow): 6%
Survival of adult flies (Drosophila melanogaster [1]; CO2 pretreatment 30 minutes, 19 h anoxic exposure, stopped-flow): 54%
Survival of adult flies (Drosophila melanogaster [1]; CO2 pretreatment 90 minutes, 19 h anoxic exposure, stopped-flow): 28%
Survival of adult flies (Drosophila melanogaster [1]; CO2 pretreatment, anoxic exposure, then CO2 for 20 minutes immediately following): no flies survived
Survival of adult flies (Drosophila melanogaster [1]; CO2 without subsequent anoxic exposure): No survival
Effect of CO2 pretreatment in cold treatment experiments (Drosophila melanogaster [1]; flies kept at 4° C. during anoxia): did not have a noticeable difference
Survival versus no pretreatment (Drosophila melanogaster [1]; low-flow, 100% CO2 10 min, trend (FIG. 9)): greater survival
Time of CO2 administration giving the highest fraction of surviving flies (Drosophila melanogaster [1]; stopped-flow, 22 h anoxic exposure): 0.5 to 5 min
Survival of 0-24 h old embryos ([2]; 18.5 h anoxic exposure): develop to adulthood
Movement of larvae upon reoxygenation ([2]; 24.5 h anoxia, only if pretreated): resume movement
Pupae formed from a pool of 0-19 h old embryos ([2]; CO2 pretreatment 10 min, anoxia 24 h): 20 pupae
Survival of adult flies (Drosophila melanogaster [3]): no flies survived

O=C=O [CO, carbon dioxide]
Flies recovered (Drosophila melanogaster [1]; treated only with CO2 for 10 min before the anoxic exposure, control experiment): 11%

S [H2S, Hydrogen sulfide]
Complete recovery (rat hemorrhage model; 300 ppm H2S in room air from 20 min into the 40 min bleed to end of bleed): 85.7%
Rats that survived hemorrhage and 3 hour shock period and recovered completely (rat hemorrhage model; 300 ppm H2S, survivors/treated): 6/7
Blood bicarbonate content ([HCO3^−]) (rat hemorrhage model; End of bleed): 21 ± 3 mmol/L
Blood bicarbonate content ([HCO3^−]) (rat hemorrhage model; Pre-bleed): 32 ± 3 mmol/L
Survival of adult flies (Drosophila melanogaster [1]; 50 ppm H2S in room air prior to anoxia, 18.5 h): 25%
Survival of adult flies (Drosophila melanogaster [1]; 50 ppm H2S in the CO2 pretreatment, removed as anoxia is established, 20 h): 35%
Survival of adult flies (Drosophila melanogaster [1]; CO2 10 min, H2S/CO2 10 min, N2/H2S 10 min, then N2, 15 h anoxic exposure, low-flow): 50%
Lowest oxygen tension survived for an hour (mice in lethal hypoxia): 2.5%
Drop in metabolic rate (mice; 150 ppm H2S 20 min pretreatment then long exposure to 5% oxygen): over 50 fold
Drop in metabolic rate (mice; H2S alone for the same period of time (80 ppm, six hours)): 10 fold
Survival at high temperature (C. elegans [4]; adapted animals at high temperature in room air): 7.3 h
H2S-treated animals alive when all untreated animals had died (C. elegans [4]; average, data not shown): 80%
Mean survival time at high temperature (C. elegans [4]; sir-2.1(ok434) animals grown in H2S, high temperature in H2S (n=20)): 9.8 ± 0.3 h
Mean survival time at high temperature (C. elegans [4]; unadapted animals moved to high temperature in 50 ppm H2S): 2.1 h
Mean survival time at high temperature (C. elegans [4]; wild-type adapted animals, high temperature in H2S (n=136)): 65.5 h
Mean lifespan (C. elegans [5]; adapted animals in H2S (n=80)): 22.6 ± 1.0 days
Increase of maximum lifespan (C. elegans [5]; animals grown in H2S versus untreated controls): 4 days
Lifespan (C. elegans [5]; raised in house air, moved to H2S at the beginning of the lifespan experiment): 14.8 ± 0.3 days
Lifespan (C. elegans [5]; sir-2.1(ok434) animals raised in H2S (n=47)): 20.0 ± 1.6 days
Rate of egg-laying (C. elegans [6]; adapted (wild-type in 50 ppm H2S), in 2% O2): 4.9 ± 1.4 embryos per hour
Rate of egg-laying (C. elegans [6]; adapted (wild-type in 50 ppm H2S), in 2% O2 + H2S): 4.7 ± 1.2 embryos per hour
Rate of egg-laying (C. elegans [6]; adapted (wild-type in 50 ppm H2S), in H2S): 7.8 ± 2.0 embryos per hour
embryogenesis, hours ± SEM (n) (C. elegans [6]; adapted: wild-type animals in 50 ppm H2S, median time for 2-cell embryos to hatch at room temperature): 13.3 ± 0.4 (34) hours
post-embryonic, hours ± SEM (n) (C. elegans [6]; adapted: wild-type animals in 50 ppm H2S, median time for starved first-stage larvae to become gravid adults): 49.3 ± 0.2 (15) hours
Numbers of progeny (C. elegans [6]; animals raised in low H2S): 221±35
Rate of egg-laying (C. elegans [6]; clk-1(qm30), in 2% O2 + H2S): 2.5 ± 1.0 embryos per hour
Rate of egg-laying (C. elegans [6]; clk-1(qm30), in H2S): 3.2 ± 1.1 embryos per hour
Rate of egg-laying (C. elegans [6]; unadapted (wild-type grown in room air), in H2S, ± SD, n = 10): 8.3 ± 3.0 embryos per hour
Rate of egg-laying (C. elegans [6]; unadapted, in 2% O2 + H2S): 4.5 ± 1.6 embryos per hour
Effect of exposure to extreme levels (rodents and humans): sudden collapse and unconsciousness
Effect of perinatal exposure (rats; 20 or 50 ppm H2S, 7 hours per day from gestation through post-natal day 21): longer dendritic branches with reduced aborization of cerebellar Purkinje cells
Effects of repeated gas exposure (rats; 80 ppm or greater H2S, 3 hours per day on five consecutive days (Struve et al. 2001)): Significant reductions in motor activity, water maze performance and body temperature
Behavioral toxicity, learning (rats; moderate levels (Partlo et al., 2001)): interferes with the ability of rats to learn a baited radial arm maze task
Behavioral toxicity, avoidance (rats; moderate levels, immediately after the end of the exposure (Higuchi and Fukamachi)): inhibits discriminated avoidance responses
Effects in exposed rat pups (rats; perinatal study, 80 ppm H2S (Dorman et al. 2000)): no neuropathological effects or altered motor activity, passive avoidance, or acoustic startle response

[C-]#[O+] [carbon monoxide, Carbon monoxide]
Effect on exposed humans (humans; 50 ppm): no symptoms
Effect on exposed humans (humans; 200 ppm, within two-three hours): slight headache
Effect on exposed humans (humans; 400 ppm, within one to two hours): frontal headache
Effect on exposed humans (humans; 800 ppm, within 45 minutes): dizziness, nausea, and/or convulsions
Effect on an organism (humans; around 1000 ppm, exposure for more than around 1-2 minutes): expire
